From patent US9220746B2, “Compounds and methods for treating bone disorders and controlling weight” (The University of North Carolina at Chapel Hill, priority 2009, dated 2015)
Where no end group is shown, it is not given here.

Assays:
[1] = system: metacarpals; test: Metacarpal culture ex vivo (calcein incorporated area, length, width); type: cell-based, mouse; conditions: 10 days, IGFBP2 200 ng/ml, peptides 2 μg/ml, vs PBS; for calcein incorporated area of metacarpals: IGF-1 20 ng/ml
Procedure: FIG. 2. The heparin binding domain of IGFBP2 enhances periosteal expansion of metacarpals ex vivo. Metacarpals were collected from day 1 male mouse, and treated with osteogenic media with IGFBP2 (200 ng/ml) or the heparin-binding domain peptide (HBD-peptide) (2 μg/ml) in the presence or absence of IGF-1 (20 ng/ml) for 10 days. Bones were labeled with calcein (500 ng/ml) and calcein incorporated area was visualized (a) and longitudinal length of calcein incorporated area was quantified (b). Alcian blue and Von Kossa double staining was performed (c) and length and width of metacarpals were quantified (d). Statistical difference was analyzed by ANOVA followed by Bonferroni post-hoc test. Figures shown represent at least 3 independent experiments. Values are expressed as the mean±SEM (n=3-4). ^a; <0.05 vs PBS, ^b; <0.01 vs PBS, ^c; <0.001 vs PBS, ^d; <0.01 vs HBD, ^e; <0.05 vs IGF-I, ^f; <0.05 vs HBD.
Metacarpals were isolated from Igfbp2^−/− mice at 1-day old and incubated in DMEM containing 0.5% BSA, 50 μg/ml ascorbic acid and 1 mM β-glycerol phosphate for 10 days^54. Stimulants were added to culture media from day 1. At day 10, metacarpals were incubated in media containing calcein (500 ng/ml) for 2 hours for staining of calcium deposition, and images were obtained. Then, bones were fixed with 4% PFA, embedded in paraffin, and processed for Alcian blue and von Kossa double staining.

[2] = system: Igfbp2−/− COBs and BMSCs; test: In vitro osteoblastogenesis of calvarial osteoblasts and bone marrow stromal cells (ALP, Alizarin Red staining); type: cell-based, mouse; conditions: 2 μg/ml, osteogenic media
Procedure: FIG. 1. The heparin-binding domain of IGFBP2 enhances osteoblastogenesis in vitro. a. Von Kossa staining was performed using tibia from 8 weeks old Igfbp2^+/+ and Igfbp2^−/− male mouse. b. Calvarial osteoblasts (COBs) were harvested from day 7 old male Igfbp2^+/+ and Igfbp2^−/− male mouse, and treated with osteogenic media in the presence of 2.5% FCS. At day 7, alkaline phosphatase (ALP) staining was performed. c and d. COBs and Bone marrow stromal cells (BMSCs) from Igfbp2^−/− mouse were treated with osteogenic media with pegylated heparin-binding domain peptide (PEG-HBD) in the presence of 10% FCS. ALP staining (day 7) and Alizarin Red staining (day 14) were performed (c). RNA was isolated at day 14 from BMSCs and expression of ALP, osteocalcin (OC) and Runx2 was analyzed by real-time PCR. Figures shown represent at least 3 independent experiments (n=3). Statistical difference was analyzed by student's t test. *; p<0.05.
FIG. 7. […] Igfbp2^−/− calvarial osteoblasts (COBs) were cultured with osteogenic media with PBS, control peptide (2 μg/ml) or heparin binding domain peptide (HBD-peptide) (2 μg/ml). Osteoblastogenesis was evaluated by Alizarin Red staining.
Neonatal calvarial osteoblasts were collected from 7-10 day old mice as previously described^53. Briefly, calvariae were digested 5 times with collagenase P and Trypsin. Cells released from digests 2 through 5 were collected as primary calvarial osteoblasts, and maintained in DMEM supplemented with 10% FCS and non-essential amino acids. Osteoblastogenesis of primary calvarial osteoblasts was carried out by treating cells with 4 mM β-glycerophosphate and 50 μg/ml ascorbic acid in αMEM. Bone marrow stromal cells (BMSCs) were harvested from femurs and tibias of 8 weeks old mice as described previously^10. Osteoblastogenesis of BMSCs was induced by the treatment with osteogenic media consisting of αMEM containing 10% FCS, 8 mM β-glycerophosphate, and 50 μg/ml ascorbic acid.

[3] = system: PTEN; test: Western blot analysis of PTEN expression; type: cell-based, mouse; conditions: primary calvarial osteoblasts, overnight treatment
Procedure: FIG. 5. The heparin-binding domain of IGFBP2 suppresses PTEN expression. a and b, Igfbp2^−/− calvarial osteoblasts (COBs) were isolated, and treated with PBS, IGFBP-2 or pegylated heparin-binding domain peptide (PEG-HBD) in MEMα containing 0.1% BSA overnight. Whole cell lysate was collected and expression of PTEN and α-actin was analyzed by Western blot analysis. Expression levels of PTEN were quantified by normalizing to the expression levels of α-actin. c and d. COBs pre-incubated with PBS, IGFBP-2 or PEG-HBD overnight were treated with IGF-I (100 ng/ml) for 15 minutes. Whole cell lysate was collected and expression of pSer473-Akt and Akt was analyzed by Western blot analysis. Expression levels of pSer473-Akt were quantified by normalizing to the expression levels of Akt. Figures shown represent at least 3 independent experiments. Values are expressed as the mean±SEM (n=3-4). Statistical difference was analyzed by Student's t-test. *; <0.001, **; <0.01, ^†; <0.05.
FIG. 9. […] Igfbp2^+/+ calvarial osteoblasts were treated with PBS, control peptide, or heparin-binding domain peptide (HBD-peptide) overnight, and whole cell lysate was collected. PTEN expression was analyzed using western blot analysis (a), and quantitative analysis was performed (b). Values were expressed as the mean±SEM (n=3). Statistical significance was analyzed by ANOVA followed by Bonferroni post-hoc test. ^a; p<0.01 vs. PBS, ^b; p<0.01 vs. control peptide.
To prepare whole cell lysates, cells were solubilized in RIPA buffer^55. For cytosolic fraction, cells were solubilized with hypotonic buffer containing protease and phosphatase inhibitors (10 mM Tris, 0.2 mM MgCl2, pH 7.4) and kept on ice for 10 min. Cell lysates were mixed with sucrose buffer (final concentration; 25 mM Sucrose, 0.1 mM EDTA) and centrifuged at 20,000×g for 1 hour. Supernatant was used as cytosolic fraction. To prepare the membrane fraction, cells were solubilized with PBS containing protease and phosphatase inhibitors. The lysates were frozen at −80° C. for 1 h and thawed at room temperature. After three cycles, they were centrifuged at 13,000×g for 25 min. The pellet was suspended with membrane protein isolation buffer (20 mM Tris-HCl; 150 mM NaCl; 1 mM EDTA; 1 mM EGTA; and 1% Triton X-100, pH 7.5) containing protease and phosphatase inhibitors. Protein concentration was assessed by BCA protein assay kit (Thermo Scientific) and equal amounts of sample were separated by SDS-PAGE and transferred electrophoretically to nitrocellulose membranes. Membranes were blocked in 5% BSA in Tris-buffered saline. […]

[4] = system: β-catenin; test: Western blot analysis of β-catenin (cytosolic accumulation, pSer552); type: cell-based, mouse
Procedure: FIG. 6. The heparin-binding domain of IGFBP-2 stimulates cytosolic accumulation and Ser552 phosphorylation of β-catenin by IGF-I. a, MC3T3-E1 cells were serum-starved over-night and treated with IGF-I at the indicated concentration for 6 hours. Expression of β-catenin and α-actin was analyzed by Western blot analysis with membrane and cytosolic fraction. b, Igfbp2^−/− calvarial osteoblasts (COBs) were serum-starved over-night with PBS or pegylated heparin-binding domain peptide (PEG-HBD) and then treated with IGF-I (100 ng/ml) for 6 hours. Expression of β-catenin was analyzed by Western blot analysis with cytosolic fraction and quantified by normalizing to α-actin (n=3). c, MC3T3-E1 cells were serum-starved over-night and treated with IGF-I (100 ng/ml) for 15 min. Expression of pSer552-β-catenin, β-catenin, pSer473-Akt, Akt and α-actin was analyzed by Western blot analysis with whole cell lysates. d, Igfbp2^−/− COBs were serum-starved over-night with PBS or PEG-HBD and then treated with IGF-I (100 ng/ml) for 15 min. Expression of pSer552-β-catenin was analyzed by Western blot analysis with whole cell lysates and quantified by normalizing to β-catenin (n=3). Figures shown represent at least 3 independent experiments. Values are expressed as the mean±SEM. Statistical difference was analyzed by Student's t-test. *; <0.001, **; <0.01, ^†; <0.05. […]

[5] = system: adherent macrophages; test: Osteoclast differentiation, tartrate resistant acid phosphatase staining; type: cell-based, mouse; conditions: osteoclast differentiation
Text: The method for osteoclast differentiation is as follows: Balb/c mice in which the IGFBP-2 gene had been deleted (see V. DeMambro et al, Endocrinology, 149(5): 2051-2061 (2007)) were anesthetized and sacrificed using cervical dislocation. The femurs from each mouse were dissected free of soft tissue and the bone marrow aspirated by needle puncture. Cells were removed sterile and resuspended in DMEM with 10% fetal calf serum. The cells were centrifuged at 700×g and the cell pellet resuspended in medium and plated in 24 well plates at a concentration of 5000 cells/cm^2. The plates that are used are low adherence plates that have no additives to facilitate cell adherence. Under these conditions macrophages will adhere while other cells will not. The media is supplemented with mCSF 20 ng/ml. After 3 days the cells are removed from the plate and the adherent macrophages are exposed to fresh media containing 10% FBS and mCSF. This is repeated again after 3 days and then after an additional 3 days cells are trypsinized and replated in fresh plates at 6×10^4 cells/cm. At this time RANK ligand, 50 ng/ml, is added, although in some experiments concentrations as low as 10 ng/ml were utilized. Medium is changed at 3 and 6 days and on day 7 cells are stained for tartrate resistant acid phosphatase, a marker of osteoclast differentiation. IGFBP-2 was added at concentrations between 50 ng/ml and 500 mcg/ml. The peptide was added at 20 or 200 ng/ml.
For tartrate resistant acid phosphatase staining, a 1% solution is prepared and incubated with the cells for 30 min at room temperature. Cultures are then washed and cell number determined by manual counting.

[6] = system: cells derived from bone marrow aspirates or calvaria; test: Osteoblast differentiation, alkaline phosphatase and von kossa stain; type: cell-based, mouse
Procedure: For measurement of osteoblast differentiation, the cells are also derived from the same bone marrow aspirates. However in some experiments they were derived from calvaria obtained from newborn animals. Cells are plated in 6 well plates at […] in alpha MEM with 10% fetal bovine serum. Media was changed on day 1 and 3. At day 3 the cells received differentiation medium, which is alphaMEM containing 10% fetal calf serum, 8 mM glycerol phosphate and 50 ug/ml ascorbic acid. Media subsequently is changed every 2 days until termination of the experiment, generally at 18 days. In some experiments fetal calf serum concentration was lowered to either 5% or 2%. IGFBP-2 200 ng/ml was added to some cultures or the IGFBP-2 peptide at concentrations between 2 ng/ml and 2 mcg/ml. To determine osteoblast differentiation, the cells were fixed with 4% paraformaldehyde and then stained for alkaline phosphatase. The cells were then counterstained with von kossa stain to detect mineralization.

[7] = system: IGFBP-2−/− mice; test: In vivo rescue of the bone phenotype in IGFBP-2−/− mice (micro CT); set-up: species or system mouse
Procedure: IGFBP-2−/− mice have reduced bone mineral density, reduced cortical and trabecular thickness and reduced bone turnover, both formation and resorption. To determine if the 13 amino acid peptide was active systemically, a pegylated preparation was prepared in order to extend halflife. This preparation was then injected into the mice. Mice between the ages of 16 and 20 weeks were utilized. These mice are known to have a major bone phenotype. The peptide was injected at a dose of 50 mcg of peptide plus conjugate, that is the total molecular weight of PEG plus the peptide, which is approximately 23,000 molecular weight was injected intraperitoneally five days per week for three weeks. Six mice were injected in each group. The major measure of bone density is the bone volume over total volume as calculated by micro CT analysis. This measures the amount of total bone within a given space. Control animals receive PBS injections.

[8] = 50 mcg i.p. five days per week for three weeks

Substance: AALSLEEPAALAP (Synthetic control peptide) [control peptide for HBD-peptide, reference compound]
- calcein incorporated area of metacarpals [1]: no effect
- width (and length) of metacarpals [1]: comparable to the metacarpals treated with PBS
- mineralization of Igfbp2−/− COBs (Alizarin Red) compared to PBS [2]: did not enhance mineralization
- PTEN expression [3]: no effect on PTEN expression

Substance: IGF-I: insulin-like growth factor-I
- Ser552 phosphorylation of β-catenin ([4]; IGF-I 100 ng/ml 15 min, MC3T3-E1 cells (IGF-I alone) or Igfbp2−/− COBs pre-treated with PEG-HBD): stimulated β-catenin phosphorylation on Ser552
- cytosolic accumulation of β-catenin ([4]; IGF-I 6 hours, MC3T3-E1 cells (IGF-I alone) or Igfbp2−/− COBs pre-treated with PEG-HBD vs PBS): enhanced cytosolic accumulation of β-catenin
- calcein incorporated area of metacarpals [1]: stimulated expansion of calcein incorporated area

Substance: RKGFYKRKQCKPSRGKRK (IGFBP-5 heparin binding domain-containing peptide sequence) [HBD-BP5, reference compound]
- calcein incorporated area of metacarpals [1]: did not have any effect
- width (and length) of metacarpals [1]: did not have any effect
- mineralization of Igfbp2−/− COBs (Alizarin Red) compared to PBS [2]: did not show any enhancement of mineralization

Substance: pegylated 13 amino acid peptide: peptide of SEQ ID NO: 1 N-terminally pegylated with methoxyPEG propinaldehyde molecular weight 20 kDa, 1 PEG per peptide ({methoxyPEG 20 kDa}-KHHLGLEEPKKLR)
- biologic activity compared to the nonpegylated peptide [5]: equal biologic activity
- biologic activity compared to the nonpegylated peptide [6]: equal biologic activity
- PTEN in bones (biochemical analysis) [7, 8]: downregulated
- cortical thickness [7, 8]: substantially increased
- rescue of bone phenotype relative to normal [7, 8]: ≤ 70%
- BV/TV (bone volume over total volume) ([7]; 50 mcg peptide plus conjugate i.p. five days per week for three weeks, normal 0.22, gene deletion 0.12): 0.18
